Data on 20 compounds can be found in patent US12157746B2, “Tetrahydro-1H-pyrazino[2,1-a]isoindolylquinoline compounds for the treatment of autoimmune disease” (F. HOFFMANN-LA ROCHE AG, priority 2018, dated 2024).

This assay has as its target T1, human TLR9 (Homo sapiens, UniProt Q9NR96).
T1 sequence (Q9NR96 26-1032): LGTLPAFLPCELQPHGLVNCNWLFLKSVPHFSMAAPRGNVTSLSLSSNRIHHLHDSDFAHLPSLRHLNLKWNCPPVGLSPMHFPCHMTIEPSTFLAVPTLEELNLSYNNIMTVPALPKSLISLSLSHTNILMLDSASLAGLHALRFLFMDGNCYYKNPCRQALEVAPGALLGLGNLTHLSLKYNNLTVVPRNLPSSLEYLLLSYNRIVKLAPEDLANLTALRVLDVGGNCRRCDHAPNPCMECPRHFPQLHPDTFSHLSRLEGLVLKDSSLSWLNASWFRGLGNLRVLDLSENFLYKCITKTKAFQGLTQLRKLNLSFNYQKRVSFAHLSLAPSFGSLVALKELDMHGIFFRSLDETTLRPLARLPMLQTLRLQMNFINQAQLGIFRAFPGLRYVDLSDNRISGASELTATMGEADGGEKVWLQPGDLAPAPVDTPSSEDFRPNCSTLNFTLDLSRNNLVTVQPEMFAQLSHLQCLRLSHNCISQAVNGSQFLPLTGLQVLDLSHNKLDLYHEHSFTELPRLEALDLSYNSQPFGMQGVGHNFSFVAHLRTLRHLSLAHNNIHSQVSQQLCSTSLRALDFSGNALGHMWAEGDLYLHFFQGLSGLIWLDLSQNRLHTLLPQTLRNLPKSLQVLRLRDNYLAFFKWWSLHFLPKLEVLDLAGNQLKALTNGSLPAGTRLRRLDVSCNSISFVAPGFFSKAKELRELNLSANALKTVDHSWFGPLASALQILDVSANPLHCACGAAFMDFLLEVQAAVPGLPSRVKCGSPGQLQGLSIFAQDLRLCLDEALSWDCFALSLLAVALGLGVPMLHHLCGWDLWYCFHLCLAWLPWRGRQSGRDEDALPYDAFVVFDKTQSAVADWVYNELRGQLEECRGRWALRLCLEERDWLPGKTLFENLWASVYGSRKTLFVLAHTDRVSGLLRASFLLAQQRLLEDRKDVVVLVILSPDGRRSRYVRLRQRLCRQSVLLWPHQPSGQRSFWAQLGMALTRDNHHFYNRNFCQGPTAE
The assay can be described thus: HEK293-Blue-hTLR-9 cells assay. In kind it is cell-based. The settings on record: HEK293-Blue-hTLR9 cells, ODN2006 stimulation, 20 hrs, SEAP reporter; read-out: HEK/hTLR9 IC50. From the text: HEK293-Blue-hTLR-9 Cells Assay:
A stable HEK293-Blue-hTLR-9 cell line was purchased from InvivoGen (Cat. #: hkb-htlr9, San Diego. California USA). These cells were originally designed for studying the stimulation of human TLR9 by monitoring the activation of NF-κB. A SEAP (secreted embryonic alkaline phosphatase) reporter gene was placed under the control of the IFN-β minimal promoter fused to five NF-κB and AP-1-binding sites. The SEAP was induced by activating NF-κB and AP-1 via stimulating HEK-Blue hTLR9 cells with TLR9 ligands. Therefore the reporter expression was declined by TLR9 antagonist under the stimulation of a ligand, such as ODN2006 (Cat. #: tlrl-2006-1, Invivogen, San Diego, California USA), for incubation of 20 hrs. The cell culture supernatant SEAP reporter activity was determined using QUANTI-Blue™ kit (Cat. #: rep-qb1, Invivogen, San Diego, California, USA) at a wavelength of 640 nm, a detection medium that turns purple or blue in the presence of alkaline phosphatase.
HEK293-Blue-hTLR9 cells were incubated at a density of 250.000-450,000 cells/mL in a volume of 170 μL in a 96-well plate in Dulbecco's Modified Eagle's medium (DMEM) containing 4.5 g/L glucose, 50 U/mL penicillin, […], […], 2 mM L-glutamine, 10% (v/v) heat-inactivated fetal bovine serum with addition of 20 μL test compound 1n a serial dilution in the presence of final DMSO at 1% and 10 μL of 20 uM ODN2006 in above DMEM, perform incubation under 37° C. in a CO2 incubator for 20 hrs. Then 20 μL of the supernatant from each well was incubated with 180 μL Quanti-blue substrate solution at 37° C. for 2 h and the absorbance was read at 620˜655 nm using a spectrophotometer. The signaling pathway that TLR9 activation leads to downstream NF-κB activation has been widely accepted, and therefore similar reporter assay was modified for evaluating TLR9 antagonist.
Consider `C[C@@H]1CN(c2ccc(C#N)c3ncccc23)C[C@@H]2c3ccc(N4CCOC5(CNC5)C4)cc3CN12` [Example 24, 5-[(4R,10bS)-4-methyl-8-(5-oxa-2,8-diazaspiro[3.5]nonan-8-yl)-3,4,6,10b-tetrahydro-1H-pyrazino[2,1-a]isoindol-2-yl]quinoline-8-carbonitrile], for which the IC50 came to 90.5 nM. To `C[C@@H]1CN(c2ccc3c(c2)CN2[C@H](C)CN(c4ccc(C#N)n5nccc45)C[C@H]32)CCN1` [Example 97, 4-[(4R,10bS)-4-methyl-8-[(3R)-3-methylpiperazin-1-yl]-3,4,6,10b-tetrahydro-1H-pyrazino[2,1-a]isoindol-2-yl]pyrazolo[1,5-a]pyridine-7-carbonitrile] belongs 161 nM; to `C[C@@H]1CN(c2ccc(C#N)c3ncccc23)CC2c3ccc(N4C[C@H](N)[C@@H](O)C4)cc3CN21` (relative stereo) [Example 21, 5-[(4R,10bS)-8-[trans-3-amino-4-hydroxy-pyrrolidin-1-yl]-4-methyl-3,4,6,10b-tetrahydro-1H-pyrazino[2,1-a]isoindol-2-yl]quinoline-8-carbonitrile], 56.1 nM. Regarding `C[C@@H]1CN(c2ccc(C#N)c3ncccc23)C[C@@H]2c3ccc(N4CCOC[C@H](N)C4)cc3CN12` [Example 54A, 5-[(4R,10bS)-8-[(6R)-6-amino-1,4-oxazepan-4-yl]-4-methyl-3,4,6,10b-tetrahydro-1H-pyrazino[2,1-a]isoindol-2-yl]quinoline-8-carbonitrile], the IC50 came out at 92.2 nM. The value for `C[C@@H]1CN(c2ccc(C#N)c3ncccc23)C[C@@H]2c3ccc(C4CCNCC4)cc3CN12` [Example 9, 5-[(4R,10bS)-4-methyl-8-(4-piperidyl)-3,4,6,10b-tetrahydro-1H-pyrazino[2,1-a]isoindol-2-yl]quinoline-8-carbonitrile] was 130 nM. In the case of `C[C@@H]1CN(c2ccc(C#N)c3ncccc23)C[C@@H]2c3ccc(N4CCNC[C@@H]4CO)cc3CN12` [Example 10, 5-[(4R,10bS)-8-[(2R)-2-(hydroxymethyl)piperazin-1-yl]-4-methyl-3,4,6,10b-tetrahydro-1H-pyrazino[2,1-a]isoindol-2-yl]quinoline-8-carbonitrile], the IC50 was determined as 92.5 nM. To `COC1CN(c2ccc3c(c2)CN2C3CN(c3ccc(C#N)c4ncccc34)C[C@H]2C)CC1N` (single isomer, unassigned) [Example 16B] belongs 97.5 nM. As to `C[C@@H]1CN(c2ccc(C#N)c3ncccc23)C[C@@H]2c3ccc(N4CCNCC(C)(O)C4)cc3CN12` (stereo partly drawn) [Example 55, 5-[(4R,10S)-8-(6-hydroxy-6-methyl-1,4-diazepan-1-yl)-4-methyl-3,4,6,10b-tetrahydro-1H-pyrazino[2,1-a]isoindol-2-yl]quinoline-8-carbonitrile], the IC50 came to 118 nM. The value for `C[C@@H]1CN(c2ccc(C#N)c3ncccc23)C[C@@H]2c3ccc(N4CC5(CNC5)C4)cc3CN12` [Example 36, 5-[(4R,10bS)-8-(2,6-diazaspiro[3.3]heptan-2-yl)-4-methyl-3,4,6,10b-tetrahydro-1H-pyrazino[2,1-a]isoindol-2-yl]quinoline-8-carbonitrile] was 100 nM; that for `CO[C@@H]1CN(c2ccc3c(c2)CN2[C@H](C)CN(c4ccc(C#N)n5nccc45)C[C@H]32)C[C@H]1N` [Example 94, 4-[(4R,10bS)-8-[(3R,4R)-3-amino-4-methoxy-pyrrolidin-1-yl]-4-methyl-3,4,6,10b-tetrahydro-1H-pyrazino[2,1-a]isoindol-2-yl]pyrazolo[1,5-a]pyridine-7-carbonitrile] was 149 nM.

For `C[C@@H]1CN(c2ccc(C#N)c3ncccc23)C[C@@H]2c3ccc(N4C[C@@H](N)[C@H](O)C4)cc3CN12` (single isomer, unassigned) [Example 40B], the IC50 came out at 70.8 nM. The value for `C[C@@H]1CN(c2ccc(C#N)c3ncccc23)C[C@@H]2c3ccc(N4CCNC[C@H](O)C4)cc3CN12` [Example 53A, 5-[(4R,10bS)-8-[(6S)-6-hydroxy-1,4-diazepan-1-yl]-4-methyl-3,4,6,10b-tetrahydro-1H-pyrazino[2,1-a]isoindol-2-yl]quinoline-8-carbonitrile] was 56 nM; that for `C[C@@H]1CN(c2ccc(C#N)n3nccc23)C[C@@H]2c3ccc(N4CCNCC4)cc3CN12` [Example 5, 4-[(4R,10bS)-4-methyl-8-piperazin-1-yl-3,4,6,10b-tetrahydro-1H-pyrazino[2,1-a]isoindol-2-yl]pyrazolo[1,5-a]pyridine-7-carbonitrile] was 133 nM; that for `C[C@@H]1CN(c2ccc(C#N)c3ncccc23)C[C@@H]2c3ccc(N[C@H]4CNC[C@H]4F)cc3CN12` [Example 30, 5-[(4R,10bS)-8-[[(3S,4R)-4-fluoropyrrolidin-3-yl]amino]-4-methyl-3,4,6,10b-tetrahydro-1H-pyrazino[2,1-a]isoindol-2-yl]quinoline-8-carbonitrile] was 96.6 nM.

As to `C[C@@H]1CN(c2ccc(C#N)n3nccc23)C[C@@H]2c3ccc(N[C@H]4CNC[C@H]4F)cc3CN12` [Example 98, 4-[(4R,10bS)-8-[[(3S,4R)-4-fluoropyrrolidin-3-yl]amino]-4-methyl-3,4,6,10b-tetrahydro-1H-pyrazino[2,1-a]isoindol-2-yl]pyrazolo[1,5-a]pyridine-7-carbonitrile], the IC50 is 197 nM. The value for `[2H]c1ccc2c(N3C[C@@H](C)N4Cc5cc(N[C@H]6CNC[C@H]6F)ccc5[C@H]4C3)ccc(C#N)c2n1` [Example 91, 5-[(4R,10bS)-8-[[(3S,4R)-4-fluoropyrrolidin-3-yl]amino]-4-methyl-3,4,6,10b-tetrahydro-1H-pyrazino[2,1-a]isoindol-2-yl]-2-deuterio-quinoline-8-carbonitrile] was 70.5 nM; that for `CN[C@H]1CN(c2ccc3c(c2)CN2[C@H](C)CN(c4ccc(C#N)c5ncccc45)C[C@H]32)C[C@@H]1O` [Example 42, 5-[(4R,10bS)-8-[(3S,4S)-3-hydroxy-4-(methylamino)pyrrolidin-1-yl]-4-methyl-3,4,6,10b-tetrahydro-1H-pyrazino[2,1-a]isoindol-2-yl]quinoline-8-carbonitrile] was 65.4 nM. The value for `C[C@@H]1CN(c2ccc(C#N)c3ncccc23)C[C@@H]2c3ccc(N4CC(N)C4)cc3CN12` [Example 22, 5-[(4R,10bS)-8-(3-aminoazetidin-1-yl)-4-methyl-3,4,6,10b-tetrahydro-1H-pyrazino[2,1-a]isoindol-2-yl]quinoline-8-carbonitrile] was 104 nM; that for `C[C@@H]1CN(c2ccc(C#N)n3nccc23)C[C@@H]2c3ccc(N4CC[C@@H](N)C4)cc3CN12` [Example 96, 4-[(4R,10bS)-8-[(3R)-3-aminopyrrolidin-1-yl]-4-methyl-3,4,6,10b-tetrahydro-1H-pyrazino[2,1-a]isoindol-2-yl]pyrazolo[1,5-a]pyridine-7-carbonitrile] was 193 nM.

In the case of `C[C@@H]1CN(c2ccc(C#N)c3ncccc23)C[C@@H]2c3ccc(N4CCNC[C@@H](O)C4)cc3CN12` [Example 53B, 5-[(4R,10bS)-8-[(6R)-6-hydroxy-1,4-diazepan-1-yl]-4-methyl-3,4,6,10b-tetrahydro-1H-pyrazino[2,1-a]isoindol-2-yl]quinoline-8-carbonitrile], the IC50 was 68 nM.
